In patent US20050176775A1, “Substituted pyridinones” (priority 2003, published 2005):

Compared with `N#CCc1cccc(Cn2ccc(OCc3ccc(F)cc3F)c(Br)c2=O)c1` [Example 97, {3-[3-bromo-4-(2,4-difluorobenzyloxy)-2-oxo-2H-pyridin-1-ylmethyl]-phenyl}acetonitrile], `NC(=O)Cc1cccc(Cn2ccc(OCc3ccc(F)cc3F)c(Br)c2=O)c1` [Example 128, 2-{3-[3-Bromo-4-(2,4-difluorobenzyloxy)-2-oxo-2H-pyridin-1-ylmethyl]phenyl}acetamide] is higher in melting point: 120 to 121 °C for the first, 164 to 167 °C for the second.

First: N#Cc1ccccc1Cn1ccc(OCc2ccc(F)cc2F)c(Br)c1=O [Example 98, 2-[3-bromo-4-(2,4-difluorobenzyloxy)-2-oxo-2H-pyridin-1-ylmethyl]benzonitrile]
Second: NC(=O)Cc1ccccc1Cn1ccc(OCc2ccc(F)cc2F)c(Br)c1=O [Example 126, 2-{2-[3-Bromo-4-(2,4-difluorobenzyloxy)-2-oxo-2H-pyridin-1-ylmethyl]-phenyl}acetamide]
The melting point of the first is higher: 194 to 197 °C for the first, 178 to 183 °C for the second.

First: COC(=O)c1cccc(Cn2ccc(OCc3ccc(F)cc3F)c(Br)c2=O)c1 [Example 100, Methyl 3-[3-Bromo-4-(2,4-difluorobenzyloxy)-2-oxo-2H-pyridin-1-ylmethyl]benzoate]
Second: NC(=O)c1cccc(Cn2ccc(OCc3ccc(F)cc3F)c(Br)c2=O)c1 [Example 102, 3-[3-bromo-4-(2,4-difluorobenzyloxy)-2-oxo-2H-pyridin-1-ylmethyl]benzamide]
The melting point of the first is lower: 115 to 117 °C for the first, 198 to 201 °C for the second.

First: COC(=O)c1ccc(Cn2ccc(OCc3ccc(F)cc3F)c(Br)c2=O)cc1 [Example 101, Methyl 4-[3-Bromo-4-(2,4-difluorobenzyloxy)-2-oxo-2H-pyridin-1-ylmethyl]-benzoate]
Second: NC(=O)c1ccc(Cn2ccc(OCc3ccc(F)cc3F)c(Br)c2=O)cc1 [Example 103, 4-[3-bromo-4-(2,4-difluorobenzyloxy)-2-oxo-2H-pyridin-1-ylmethyl]benzamide]
The melting point of the first is lower: 136 to 139 °C for the first, 235 to 238 °C for the second.

First: NCc1cccc(Cn2ccc(OCc3ccc(F)cc3F)c(Br)c2=O)c1F [Example 104, 1-(3-aminomethyl-2-fluorobenzyl)-3-bromo-4-(2,4-difluorobenzyloxy)-1H-pyridin-2-one]
Second: NC(=O)c1cccc(Cn2ccc(OCc3ccc(F)cc3F)c(Cl)c2=O)c1F [Example 106, 3-[3-chloro-4-(2,4-difluorobenzyloxy)-2-oxo-2H-pyridin-1-ylmethyl]-2-fluoro-benzamide]
The melting point of the first is lower: 160 to 163 °C for the first, 252 to 254 °C for the second.

First: COC(=O)c1cccc(Cn2ccc(OCc3ccc(F)cc3F)c(Cl)c2=O)c1F [Example 105, Methyl 3-[3-chloro-4-(2,4-difluorobenzyloxy)-2-oxo-2H-pyridin-1-ylmethyl]-2-fluoro-benzoate]
Second: Cc1c(OCc2ccc(F)cc2F)ccn(Cc2cccc(F)c2)c1=O [Example 129, 4-(2,4-Difluorobenzyloxy)-1-(3-fluorobenzyl)-3-methyl-1H-pyridin-2-one]
The melting point of the first is higher: 171 to 174 °C for the first, 127 to 129 °C for the second.

First: O=c1c(Br)c(OCc2ccc(F)c(F)c2F)ccn1Cc1cccc(F)c1 [Example 108, 3-bromo-1-(3-fluorobenzyl)-4-(2,3,4-trifluorobenzyloxy)-1H-pyridin-2-one]
Second: O=c1c(Br)c(OCc2ccc(F)c(F)c2)ccn1Cc1cccc(F)c1 [Example 112, 3-bromo-4-(3,4-difluorobenzyloxy)-1-(3-fluorobenzyl)-1H-pyridin-2-one]
The melting point of the first is higher: 176 to 178 °C for the first, 172 to 174 °C for the second.

First: CCOC(=O)Cc1cccc(Cn2ccc(OCc3ccc(F)cc3F)c(Br)c2=O)c1 [Example 127, Ethyl {3-[3-Bromo-4-(2,4-difluorobenzyloxy)-2-oxo-2H-pyridin-1-ylmethyl]-phenyl}acetate]
Second: O=c1c(I)c(OCc2ccc(F)cc2F)ccn1Cc1cccc(F)c1 [Example 130, 4-(2,4-Difluorobenzyloxy)-1-(3-fluorobenzyl)-3-iodo-1H-pyridin-2-one]
The melting point of the first is lower: 95 to 98 °C for the first, 164 to 167 °C for the second.
